Melting point, MIC and MIC, S. aureus data for 16 compounds are collected here from paper PMC8145110, “Design, Synthesis, and Antibacterial Screening of Some Novel Heteroaryl-Based Ciprofloxacin Derivatives as DNA Gyrase and Topoisomerase IV Inhibitors” (Pharmaceuticals, 2021).

Series [1] has as its system B. subtilis. The experiment in a line: MIC, two-fold serial dilution, B. subtilis. It counts as cell-based. The note with it: Bacillus subtilis; read-out: Minimum Inhibitory Concentration (MIC), B. subtilis. How it is done:
(§1) Table 2, using the reference drug ciprofloxacin, was presented with the MICs (minimal inhibitory concentrations) of these compounds against tested bacteria. […] The nature of aromatic substitution in the oxadiazole moiety tends to be correlated with higher antibacterial effects and the activity increased with (Ar) in the order of 2-pyridyl ≥ 3-pyridyl > 4-pyridyl > 2-Cl-Ph > 2-naphthyl.
(§2) On 96-well microtiter plates and […] of fresh bacterial culture of a single McFarland unit overnight, a double serial dilution of each compound […] in sterile standard saline was prepared for every single source well. Ciprofloxacin antibiotic (5 mg/mL^−1) and normal saline were included as standard references in each assay (see Appendix A).
(§3) In 96-well microtiter plates and […] of fresh bacterial culture of a single McFarland unit overnight, a double serial dilution of each compound […] in sterile standard saline was prepared for every single source well. Ciprofloxacin antibiotic (5 mg/mL^−1) and normal saline were included as standard reference in each assay. The plates were incubated at 37 °C overnight. As an indicator of bacterial growth, […] of p-iodonitrotetrazolium violet (INT) was added to each well and incubated at 37 °C for 30 min. […] The colorless tetrazolidium salt acts as an electron accepter and is reduced to a red colored formazan product by biological activity organisms. Where bacterial growth was inhibited, the solution in the well remained clear after incubation with INT.

The test system of series [2] is S. aureus. Put plainly: MIC, two-fold serial dilution, S. aureus. It counts as cell-based, Staphylococcus aureus. The method, then:
as §1, §2, §3

For series [3], the system named is E. coli. Put plainly: MIC, two-fold serial dilution, E. coli. It is filed as cell-based. The conditions noted are these: Escherichia coli; read-out: Minimum Inhibitory Concentration (MIC), E. coli. The method, then:
as §1, §2, §3

Series [4] concerns P. aeruginosa. Put plainly: MIC, two-fold serial dilution, P. aeruginosa. The conditions noted are these: Pseudomonas aeruginosa; read-out: Minimum Inhibitory Concentration (MIC), P. aeruginosa. It is filed as cell-based. The method, then:
as §1, §2, §3

Converted amounts (≈) assume the structure as drawn.

In general, melting point refers to the temperature of the solid-liquid transition. As to `O=C(O)c1cn(C2CC2)c2cc(N3CCN(Cn4nc(-c5ccccc5)n(-c5ccccc5)c4=S)CC3)c(F)cc2c1=O` [Compound 7, 1-Cyclopropyl-7-[4-(3,4-diphenyl-5-thioxo-4,5-dihydro-[1,2,4]triazol-1-ylmethyl)-piperazin-1-yl]-6-fluoro-4-oxo-1,4-dihydro-quinoline-3-carboxylic acid], the melting point came out at 288 °C.

Take `O=C(O)c1cn(C2CC2)c2cc(N3CCN(Cn4nc(-c5ccccc5Cl)n(-c5ccccc5)c4=S)CC3)c(F)cc2c1=O` [Compound 8, 7-{4-[3-(2-Chloro-phenyl)-4-phenyl-5-thioxo-4,5-dihydro-[1,2,4]triazol-1-ylmethyl]-piperazin-1-yl}-1-cyclopropyl-6-fluoro-4-oxo-1,4-dihydro-quinoline-3-carboxylic acid]: the melting point worked out at 214 °C.

Compound `O=C(O)c1cn(C2CC2)c2cc(N3CCN(CN4C(=O)CCC4=O)CC3)c(F)cc2c1=O` [Compound 21, 1-Cyclopropyl-7-[4-(2,5-dioxo-pyrrolidin-1-ylmethyl)-piperazin-1-yl]-6-fluoro-4-oxo-1,4-dihydro-quinoline-3-carboxylic acid] registered a melting point of 214 °C.

For the compound `O=C(O)c1cn(C2CC2)c2cc(N3CCN(CN4C(=O)c5ccccc5C4=O)CC3)c(F)cc2c1=O` [Compound 20, 1-Cyclopropyl-7-[4-(1,3-dioxo-1,3-dihydro-isoindol-2-ylmethyl)-piperazin-1-yl]-6-fluoro-4-oxo-1,4-dihydro-quinoline-3-carboxylic acid], the melting point was 241 °C.

Compound `N#CN=C1NC(c2ccccc2)(c2ccccc2)C(=O)N1CN1CCN(c2cc3c(cc2F)c(=O)c(C(=O)O)cn3C2CC2)CC1` [Compound 15, 7-[4-(2-Cyanoimino-5-oxo-4,4-diphenyl-imidazolidin-1-ylmethyl)-piperazin-1-yl]-1-cyclopropyl-6-fluoro-4-oxo-1,4-dihydro-quinoline-3-carboxylic acid] showed a melting point of 230 °C.

Turning to `O=C(O)c1cn(C2CC2)c2cc(N3CCN(Cn4nc(-c5ccc6ccccc6c5)n(-c5ccccc5)c4=S)CC3)c(F)cc2c1=O` [Compound 9, 1-Cyclopropyl-6-fluoro-7-[4-(3-naphthalen-2-yl-4-phenyl-5-thioxo-4,5-dihydro-[1,2,4]triazol-1-ylmethyl)-piperazin-1-yl]-4-oxo-1,4-dihydro-quinoline-3-carboxylic acid], the melting point stood at 262 °C.

On to `COc1ccc(C=C2SC(=O)N(CN3CCN(c4cc5c(cc4F)c(=O)c(C(=O)O)cn5C4CC4)CC3)C2=O)cc1` [Compound 18, 1-Cyclopropyl-6-fluoro-7-{4-[5-(4-methoxy-benzylidene)-2,4-dioxo-thiazolidin-3-ylmethyl]-piperazin-1-yl}-4-oxo-1,4-dihydro-quinoline-3-carboxylic acid], for which the melting point was 251 °C.

As for `O=C(O)c1cn(C2CC2)c2cc(N3CCNCC3)c(F)cc2c1=O` [Ciprofloxacin], the MIC in series [1] was found to be 0.01 µg/mL (≈ 0.0302 µM); in series [2] (Staphylococcus aureus, read-out: Minimum Inhibitory Concentration (MIC), S. aureus), 0.03 µg/mL (≈ 0.0905 µM); in series [3], 0.06 µg/mL (≈ 0.181 µM); in series [4], 0.06 µg/mL (≈ 0.181 µM). The compound further yielded an MIC, S. aureus in series [2] of 0.03 µg/mL (≈ 0.0905 µM).

`O=C(O)c1cn(C2CC2)c2cc(N3CCN(CN4C(=O)C(c5ccccc5)(c5ccccc5)NC4=S)CC3)c(F)cc2c1=O` [Compound 13, 1-Cyclopropyl-6-fluoro-4-oxo-7-[4-(5-oxo-4,4-diphenyl-2-thioxo-imidazolidin-1-ylmethyl)-piperazin-1-yl]-1,4-dihydro-quinoline-3-carboxylic acid] displayed a melting point of 217 °C.

In turn, `O=C(O)c1cn(C2CC2)c2cc(N3CCN(Cn4nc(-c5ccccn5)n(-c5ccccc5)c4=S)CC3)c(F)cc2c1=O` [Compound 10, 1-Cyclopropyl-6-fluoro-4-oxo-7-[4-(4-phenyl-3-pyridin-2-yl-5-thioxo-4,5-dihydro-[1,2,4]triazol-1-ylmethyl)-piperazin-1-yl]-1,4-dihydro-quinoline-3-carboxylic acid] returned a melting point of 270 °C.

`O=C(O)c1cn(C2CC2)c2cc(N3CCN(CN4C(=O)SC(=Cc5ccccc5O)C4=O)CC3)c(F)cc2c1=O` [Compound 19, 1-Cyclopropyl-6-fluoro-7-{4-[5-(2-hydroxy-benzylidene)-2,4-dioxo-thiazolidin-3-ylmethyl]-piperazin-1-yl}-4-oxo-1,4-dihydro-quinoline-3-carboxylic acid] displayed a melting point of 244 °C.

Consider `O=C(O)c1cn(C2CC2)c2cc(N3CCN(Cn4nc(-c5ccncc5)n(-c5ccccc5)c4=S)CC3)c(F)cc2c1=O` [Compound 12, 1-Cyclopropyl-6-fluoro-4-oxo-7-[4-(4-phenyl-3-pyridin-4-yl-5-thioxo-4,5-dihydro-[1,2,4]triazol-1-ylmethyl)-piperazin-1-yl]-1,4-dihydro-quinoline-3-carboxylic acid], for which the melting point is 227 °C.

`O=C(O)c1cn(C2CC2)c2cc(N3CCN(CN4C(=O)SC(=Cc5ccc(Cl)cc5)C4=O)CC3)c(F)cc2c1=O` [Compound 17, 7-{4-[5-(4-Chloro-benzylidene)-2,4-dioxo-thiazolidin-3-ylmethyl]-piperazin-1-yl}-1-cyclopropyl-6-fluoro-4-oxo-1,4-dihydro-quinoline-3-carboxylic acid] had a melting point of 244 °C.

The compound `O=C(O)c1cn(C2CC2)c2cc(N3CCN(Cn4nc(-c5ccccc5)oc4=S)CC3)c(F)cc2c1=O` [Compound 1, 1-Cyclopropyl-6-fluoro-4-oxo-7-[4-(5-phenyl-2-thioxo[1,3,4]oxadiazol-3-yl-methyl)-piperazin-1-yl]-1,4-dihydro-quinoline-3-carboxylic acid] displayed a melting point of 228 °C.

Consider `O=C(O)c1cn(C2CC2)c2cc(N3CCN(Cn4nc(-c5cccnc5)n(-c5ccccc5)c4=S)CC3)c(F)cc2c1=O` [Compound 11, 1-Cyclopropyl-6-fluoro-4-oxo-7-[4-(4-phenyl-3-pyridin-3-yl-5-thioxo-4,5-dihydro-[1,2,4]triazol-1-ylmethyl)-piperazin-1-yl]-1,4-dihydro-quinoline-3-carboxylic acid], for which the melting point amounted to 280 °C.

Consider `NN1C(=S)N(CN2CCN(c3cc4c(cc3F)c(=O)c(C(=O)O)cn4C3CC3)CC2)C(=O)C1(c1ccccc1)c1ccccc1` [Compound 14, 7-[4-(3-Amino-5-oxo-4,4-diphenyl-2-thioxo-imidazolidin-1-ylmethyl)-piperazin-1-yl]-1-cyclopropyl-6-fluoro-4-oxo-1,4-dihydro-quinoline-3-carboxylic acid], for which the melting point turned out to be 234 °C.
